Experimental findings from patent EP0337714A2, “HIV protease inhibitors useful for the treatment of aids” (priority 1988, dated 1989) are described below.

For assay [1], the target named is T1, HIV protease (Human immunodeficiency virus type 1 group M subtype B, UniProt P03366).
T1 construct: made in house; host or cells: Escherichia coli
The assay can be described thus: biochemical. The settings on record: protease expressed in Eschericia coli, substrate Val-Ser-Gln-Asn-(betanapthyl)Ala-Pro-ile-Val 0.5 mg/mL, 50 mM Na acetate, pH 5.5, 30°, 1 hour; read-out: ICso. How it is done: Assay for Inhibition of Microbial Expressed Viral Protease
Inhibition studies of the reaction of the protease expressed in Eschericia coli with a peptide substrate [Val-Ser-Gln-Asn-(betanapthyl)Ala-Pro-ile-Val, 0.5 mg/mL at the time the reaction is initiated] were in 50 mM Na acetate, pH 5.5, at 30° for 1 hour. Various concentrations of inhibitor in 1.0 ul DMSO were added to 25 ui of the peptide solution in water. The reaction is initiated by the addition of 15 ul of 0.33 nM protease (0.11 ng) in a solution of 0.133 M Na acetate pH 5.5 and 0.267% bovine serum albumin. The reaction was quenched with 160 ul of 5% phosphoric acid. Products of the reaction were separated by HPLC (VYDAC wide pore 5 cm C-18 reverse phase, acetonitrile gradient, 0.1% phosphoric acid). The extent of inhibition of the reaction was determined from the peak heights of the products.
Additional compounds were tested by the assay of Example 9.

In assay [2] the target is T1, HIV protease. The assay can be described thus: Assay for Inhibition of Synthetic Viral Protease (HPLC of peptide substrate cleavage products). Type of assay: biochemical. The settings on record: synthetic protease (residues 69-167 of the pol open reading frame), substrate Val-Ser-Gln-Asn-Tyr-Pro-Ile-Val 2 mg/mL, 50 mM Na acetate, pH 5.5, 30 C, 1 hour; read-out: ICso. How it is done: Assay for Inhibition of Synthetic Viral Protease
Inhibition studies of the reaction of the synthetic protease [amino acid residues 69-167 of the pol open reading frame in Ratner, L. et al, Nature, 313, 277 (1985) and synthesized by Merrifield solid-phase synthesis] with a peptide substrate[Val-Ser-Gln-Asn-Tyr-Pro-Ile-Val, 2 mg/mL when the reaction is initiated) were in 50 mM Na acetate, pH 5.5, at 30 C for 1 hour. Various concentrations of inhibitor in 1.0 µl DMSO were added to 36 µl of assay solution and the reaction initiated by the addition of 4 ul (1.6 µg) of synthetic protease. The reaction was quenched with 160 ul of 12% acetic acid. Products of the reaction were separated by HPLC (VYDAC wide pore 5 cm C-18 reverse phase, acetonitrile gradient, 0.1% trifluoroacetic acid). The extent of inhibition of the reaction was determined from the peak heights of the products. HPLC of the products, independently synthesized, provided quantitation standards and confirmation of the product composition.

With `CC(C)C[C@H](NC(=O)[C@H](Cc1ccccc1)C[C@H](O)[C@H](Cc1ccccc1)NC(=O)OC(C)(C)C)C(=O)N[C@@H](Cc1ccccc1)C(N)=O` [Compound I, N'-(1,1-Dimethylethoxycarbonyl)-5(S)-amino-4(S)-hydroxy-6-phenyl-2(R)-(phenylmethyl)-hexanoyl-Leucyl-phenylalanyl amide], the results for the IC50 in assay [1] and in assay [2] were ~0.6 nM and ~2 nM, respectively.

Take `CC(C)C[C@H](NC(=O)[C@H](Cc1ccccc1)C[C@H](O)[C@H](Cc1ccccc1)NC(=O)OC(C)(C)C)C(=O)NCc1ccccc1` [Compound II, N-Benzyl-N'-(1,1-dimethylethexycarbonyl)-5(S)-amino-4(S)-hydroxy-6-phenyl-2(R)-(phenylmethyl)hexanoyl-leucyl-amide]: the IC50 in assay [1] was ~1.4 nM.

For `CC(C)(C)OC(=O)N[C@@H](Cc1ccccc1)[C@@H](O)C[C@@H](Cc1ccccc1)C(=O)NCc1ccccc1` [Compound III], the results for the IC50 in assay [1] and in assay [2] were ~120 nM and ~50 nM, respectively.

Consider `CC(C)C[C@H](NC(=O)[C@H](Cc1ccccc1)C[C@H](O)[C@H](CC1CCCCC1)NC(=O)OC(C)(C)C)C(=O)N[C@@H](Cc1ccccc1)C(N)=O` [Compound IV, N'-(1,1-dimethylethoxycarbonyl)-5(S)-amino-4(S)-hydroxy-6-cyclohexyl-2(R)-(phenylmethyl)hexanoyl-leucyl-phenylalanylamide], for which the IC50 in assay [2] is ~27 nM.
